Structures are written as SMILES. Numbered stars: 1 amine (or outer) side, 2 acyl side, 3 side chain; on linkers, the order of the positions; unused ones are H or OH. Bridge positions count the residues as written; N and C are the ends. Peptide text beside a SMILES is read from it. I, II: the chains in the order shown. * marks the point of attachment. Estradiol(3-OCH2CO,17-OSuc) = C[C@]12CC[C@@H]3c4ccc(OCC(=O)[*:1])cc4CC[C@H]3[C@@H]1CC[C@@H]2OC(=O)CCC(=O)[*:2]; X1 = C[C@]12CC[C@@H]3c4ccc(OCC(=O)*)cc4CC[C@H]3[C@@H]1CCC2=O

The test system of data set [1] is Mus musculus. Description: Toxicity in ovariectomized ICR mouse assessed as tail bleeding time at 110.3 nmol/kg, po for 90 mins. The format is organism-based. To be noted: in vivo, 1.5 h.
Data set [2] deals with Mus musculus. Kind of data set: Toxicity in ovariectomized ICR mouse assessed as tail bleeding time at 110.3 nmol/kg, po for 30 mins. It is filed as organism-based. To be noted: in vivo, 0.5 h.
Data set [3] has as its system Mus musculus. Description: Antiosteoporosis activity against ovariectomized ICR mouse assessed as mineral content at 110.3 nmol/kg, po after 30 mins. The format is functional.
The subject of data set [4] is Mus musculus. Description: Toxicity in ovariectomized ICR mouse assessed as effect on spleen weight at 110.3 nmol/kg, po after 4 weeks. To be noted: in vivo, 672 h. It is filed as organism-based.
The subject of data set [5] is Mus musculus. Kind of data set: Antiosteoporosis activity against ovariectomized ICR mouse assessed as femur length at 110.3 nmol/kg, po after 30 mins. The format is functional.
In data set [6] the test system is Mus musculus. Description: Antiosteoporosis activity against ovariectomized ICR mouse assessed as serum calcium level at 110.3 nmol/kg, po after 30 mins. The format is functional.
Data set [7] relates to Mus musculus. Kind of data set: Antiosteoporosis activity against ovariectomized ICR mouse assessed as femur calcium content at 110.3 nmol/kg, po after 30 mins. It is filed as functional.
For data set [8], the system named is Mus musculus. Description: Toxicity in ovariectomized ICR mouse assessed as effect on kidney weight at 110.3 nmol/kg, po after 4 weeks. The format is organism-based. To be noted: in vivo, 672 h.
The test system of data set [9] is Mus musculus. Kind of data set: Toxicity in ovariectomized ICR mouse assessed as effect on lung weight at 110.3 nmol/kg, po after 4 weeks. It is filed as organism-based. To be noted: in vivo, 672 h.
Data set [10] has as its system Mus musculus. Kind of data set: Antiosteoporosis activity against ovariectomized ICR mouse assessed as femur ash weight at 110.3 nmol/kg, po after 30 mins. The format is functional.
In data set [11] the test system is Mus musculus. Description: Toxicity in ovariectomized ICR mouse assessed as effect on body weight at 110.3 nmol/kg, po after 4 weeks. To be noted: in vivo, 672 h. It is filed as organism-based.
Data set [12] deals with Mus musculus. Kind of data set: Toxicity in ovariectomized ICR mouse assessed as change in uterine weight at 110.3 nmol/kg, po after 4 weeks. The format is organism-based. To be noted: in vivo, 672 h.
Data set [13] has as its system Mus musculus. Description: Antiosteoporosis activity against ovariectomized ICR mouse assessed as serum ALP activity at 110.3 nmol/kg, po after 30 mins. The format is functional.
Data set [14] has as its system Mus musculus. Kind of data set: Antiosteoporosis activity against ovariectomized ICR mouse assessed as femur phosphorous content at 110.3 nmol/kg, po after 30 mins. It is filed as functional.
Data set [15] has as its system Mus musculus. Kind of data set: Toxicity in ovariectomized ICR mouse assessed as effect on liver weight at 110.3 nmol/kg, po after 4 weeks. To be noted: in vivo, 672 h. The format is organism-based.
Data set [16] deals with Mus musculus. Kind of data set: Antiosteoporosis activity against ovariectomized ICR mouse assessed as serum phosphorous level at 110.3 nmol/kg, po after 30 mins. The format is functional.
Data set [17] has as its system Mus musculus. Kind of data set: Antiosteoporosis activity against ovariectomized ICR mouse assessed as dry femur weight at 110.3 nmol/kg, po after 30 mins. It is filed as functional.

On to `C[C@]12CC[C@@H]3c4ccc(OCC(=O)N[C@@H](CCCNC(=N)N)C(=O)NCC(=O)N[C@@H](CC(=O)O)C(=O)N[C@@H](CO)C(=O)O)cc4CC[C@H]3[C@@H]1CC[C@@H]2OC(=O)CCC(=O)N[C@@H](CCCNC(=N)N)C(=O)NCC(=O)N[C@@H](CC(=O)O)C(=O)N[C@@H](CO)C(=O)O` (I: RGDS-OH / II: RGDS-OH; linker I:N-II:N via Estradiol(3-OCH2CO,17-OSuc)), for which the Activity in [1] was 570 s; in data set [2], 580 s; in data set [3] it was 0.62%; in data set [4], “Non-toxic”; in data set [5], 1.64 cm; in data set [6] it was 3.22 mM. Moreover, the Activity was 61.05% in data set [7]; “Non-toxic” in data set [8]; “Non-toxic” in [9]; 35.6 mg in data set [10]; “Non-toxic” in data set [11]; 0.05 g in data set [12]. The Activity is listed as 19.61 U/L in [13]; 20.35% in data set [14]; “Non-toxic” in data set [15]; 2.99 mM in data set [16]; 55.22 mg in data set [17].
Consider `CC(C)[C@H](NC(=O)[C@H](CC(=O)O)NC(=O)CNC(=O)[C@H](CCCNC(=N)N)NC(=O)CCC(=O)O[C@H]1CC[C@H]2[C@@H]3CCc4cc(OCC(=O)N[C@@H](CCCNC(=N)N)C(=O)NCC(=O)N[C@@H](CC(=O)O)C(=O)N[C@H](C(=O)O)C(C)C)ccc4[C@H]3CC[C@]12C)C(=O)O` (I: RGDV-OH / II: RGDV-OH; linker I:N-II:N via Estradiol(3-OCH2CO,17-OSuc)), for which the Activity in [1] is 532 s; in [2] it was 591 s; in data set [3], 0.62%; in data set [4] it was “Non-toxic”; in data set [5] it was 1.66 cm; in [6], 3.17 mM. The Activity in data set [7] was 61.56%; in [8], “Non-toxic”; in data set [9] it was “Non-toxic”; in data set [10], 35.75 mg; in data set [11], “Non-toxic”; in data set [12], 0.059 g. Further, the Activity was 19.94 U/L in data set [13]; 20.94% in data set [14]; “Non-toxic” in data set [15]; 2.84 mM in data set [16]; 56.46 mg in data set [17].
Consider `C[C@]12CC[C@@H]3c4ccc(OCC(=O)N[C@@H](CCCNC(=N)N)C(=O)NCC(=O)N[C@@H](CC(=O)O)C(=O)N[C@@H](Cc5ccccc5)C(=O)N[C@@H](CCCNC(=N)N)C(=O)NCC(=O)N[C@@H](CC(=O)O)C(=O)N[C@@H](Cc5ccccc5)C(=O)O)cc4CC[C@H]3[C@@H]1CCC2=O` (X1-RGDFRGDF-OH), for which the Activity in data set [1] is 574 s; in data set [2] it was 579 s; in data set [3], 0.61%; in data set [4] it was “Non-toxic”; in [5] it was 1.64 cm; in data set [6] it was 3.15 mM. Further, the Activity in [7] is 59.92%; in data set [8], “Non-toxic”; in data set [9], “Non-toxic”; in data set [10] it was 35.24 mg; in data set [11], “Non-toxic”; in data set [12], 0.051 g. Further, the Activity is 15.06 U/L in data set [13]; 20.33% in data set [14]; “Non-toxic” in data set [15]; 3.01 mM in [16]; 55.26 mg in data set [17].
Take `C[C@]12CC[C@@H]3c4ccc(OCC(=O)N[C@@H](CCCNC(=N)N)C(=O)NCC(=O)N[C@@H](CC(=O)O)C(=O)N[C@@H](CO)C(=O)N[C@@H](CCCNC(=N)N)C(=O)NCC(=O)N[C@@H](CC(=O)O)C(=O)N[C@@H](CO)C(=O)O)cc4CC[C@H]3[C@@H]1CCC2=O` (X1-RGDSRGDS-OH): the Activity is 516 s in data set [1]; 588 s in data set [2]; 0.62% in data set [3]; “Non-toxic” in [4]; 1.67 cm in data set [5]; 3.08 mM in data set [6]. The Activity in [7] is 59.95%; in [8] it was “Non-toxic”; in [9], “Non-toxic”; in data set [10], 35.78 mg; in data set [11], “Non-toxic”; in data set [12], 0.058 g. The Activity in [13] is listed as 13.8 U/L; in data set [14] it was 21.76%; in data set [15], “Non-toxic”; in data set [16], 2.96 mM; in data set [17] it was 55.9 mg.
For `CC(C)[C@H](NC(=O)[C@H](CC(=O)O)NC(=O)CNC(=O)[C@H](CCCNC(=N)N)NC(=O)[C@@H](NC(=O)[C@H](CC(=O)O)NC(=O)CNC(=O)[C@H](CCCNC(=N)N)NC(=O)COc1ccc2c(c1)CC[C@@H]1[C@@H]2CC[C@]2(C)C(=O)CC[C@@H]12)C(C)C)C(=O)O` (X1-RGDVRGDV-OH), the Activity in data set [1] was 514 s; in [2] it was 582 s; in [3], 0.62%; in [4], “Non-toxic”; in data set [5], 1.66 cm; in data set [6] it was 3 mM. Further, the Activity is reported as 60.5% in data set [7]; “Non-toxic” in [8]; “Non-toxic” in data set [9]; 35.29 mg in data set [10]; “Non-toxic” in data set [11]; 0.059 g in data set [12]. Moreover, the Activity was 13.27 U/L in data set [13]; 21.84% in [14]; “Non-toxic” in data set [15]; 3.22 mM in data set [16]; 55.39 mg in data set [17].

(Values after ChEMBL document CHEMBL1151896, “3D QSAR of novel estrogen-RGD peptide conjugates: getting insight into structural dependence of anti-osteoporosis activity and side effect of estrogen in ERT” (Bioorg Med Chem, 2009).)
